Data on 2 compounds can be found in patent US20040028656A1, “Survival of neurons” (University of South Florida, a non-profit institution, priority 1998, published 2004).

The subject of this assay is hNT neurons. As to the kind of experiment: Soma size and neurite outgrowth of TH+ hNT cells (image analysis). The class given is cell-based, human. As to conditions: for soma sizes versus control: 5DIV NaCl or KCl-treated cultures; for neurite outgrowth versus control: NaCl and KCl-treated 5DIV. The protocol: The same series of slides immunostained for TH were employed to measure the soma size (μm^2) and neurite outgrowth (μm) of appropriately 50 TH+ cells per representative culture experiment using a computerized image analysis program (Image-Pro Plus, Media Cybernetics, Inc., Silver Springs, Md.) at 20× objective. The results in the morphological assessment study are reported as mean ±SEM and were analyzed using Student's t-test.

Structures are written as SMILES.

As to `[Cl-].[K+]` [KCl], the “soma sizes versus control” value is recorded as “not significantly different from control” and the “neurite outgrowth versus control” value is “did not significantly differ from control values”.

For `[Cl-].[Na+]` [NaCl], the “soma sizes versus control” value is “not significantly different from control” and the “neurite outgrowth versus control” value is recorded as “did not significantly differ from control values”.
